Experimental data published in article PMC7736581, “Activation of the IRE1 RNase through remodeling of the kinase front pocket by ATP-competitive ligands” (Nature Communications, 2020).

How the values were obtained:
Experiment in all cases: biochemical
Parameters in all cases: Invitrogen kinase panel: Z'Lyte activity (ATP at Km) or LanthaScreen competitive ATP-site binding, percent inhibition
CLK3 = CLK3 (Homo sapiens, UniProt P49761)
PI3K-A = target: T1, PI3K-A (Homo sapiens, UniProt P42336)
T1 construct: gene PIK3CA

PDK1(direct) = target: T2, PDK1(direct) (Homo sapiens, UniProt O15530)
T2 construct: gene PDPK1; direct

SGK3 = SGK3 (Homo sapiens, UniProt Q96BR1)
SGK3, sequence (Q96BR1 whole entry): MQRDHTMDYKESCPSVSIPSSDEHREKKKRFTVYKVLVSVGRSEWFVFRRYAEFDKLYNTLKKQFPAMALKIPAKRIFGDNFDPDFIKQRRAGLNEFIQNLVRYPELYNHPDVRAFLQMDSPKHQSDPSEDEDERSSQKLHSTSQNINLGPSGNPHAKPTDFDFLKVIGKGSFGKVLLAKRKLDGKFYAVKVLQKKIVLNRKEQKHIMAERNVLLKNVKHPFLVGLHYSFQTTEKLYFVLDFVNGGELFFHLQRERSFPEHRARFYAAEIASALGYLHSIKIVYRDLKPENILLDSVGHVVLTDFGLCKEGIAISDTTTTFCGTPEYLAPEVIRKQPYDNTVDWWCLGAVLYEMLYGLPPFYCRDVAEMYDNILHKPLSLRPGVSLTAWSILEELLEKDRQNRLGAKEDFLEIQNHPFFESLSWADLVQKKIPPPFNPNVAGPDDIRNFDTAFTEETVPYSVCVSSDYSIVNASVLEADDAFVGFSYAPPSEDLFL

TTK = TTK (Homo sapiens, UniProt P33981)
PRK1 = target: T3, PRK1 (Homo sapiens, UniProt Q16512)
T3 construct: gene PKN1
T3 sequence (Q16512 whole entry): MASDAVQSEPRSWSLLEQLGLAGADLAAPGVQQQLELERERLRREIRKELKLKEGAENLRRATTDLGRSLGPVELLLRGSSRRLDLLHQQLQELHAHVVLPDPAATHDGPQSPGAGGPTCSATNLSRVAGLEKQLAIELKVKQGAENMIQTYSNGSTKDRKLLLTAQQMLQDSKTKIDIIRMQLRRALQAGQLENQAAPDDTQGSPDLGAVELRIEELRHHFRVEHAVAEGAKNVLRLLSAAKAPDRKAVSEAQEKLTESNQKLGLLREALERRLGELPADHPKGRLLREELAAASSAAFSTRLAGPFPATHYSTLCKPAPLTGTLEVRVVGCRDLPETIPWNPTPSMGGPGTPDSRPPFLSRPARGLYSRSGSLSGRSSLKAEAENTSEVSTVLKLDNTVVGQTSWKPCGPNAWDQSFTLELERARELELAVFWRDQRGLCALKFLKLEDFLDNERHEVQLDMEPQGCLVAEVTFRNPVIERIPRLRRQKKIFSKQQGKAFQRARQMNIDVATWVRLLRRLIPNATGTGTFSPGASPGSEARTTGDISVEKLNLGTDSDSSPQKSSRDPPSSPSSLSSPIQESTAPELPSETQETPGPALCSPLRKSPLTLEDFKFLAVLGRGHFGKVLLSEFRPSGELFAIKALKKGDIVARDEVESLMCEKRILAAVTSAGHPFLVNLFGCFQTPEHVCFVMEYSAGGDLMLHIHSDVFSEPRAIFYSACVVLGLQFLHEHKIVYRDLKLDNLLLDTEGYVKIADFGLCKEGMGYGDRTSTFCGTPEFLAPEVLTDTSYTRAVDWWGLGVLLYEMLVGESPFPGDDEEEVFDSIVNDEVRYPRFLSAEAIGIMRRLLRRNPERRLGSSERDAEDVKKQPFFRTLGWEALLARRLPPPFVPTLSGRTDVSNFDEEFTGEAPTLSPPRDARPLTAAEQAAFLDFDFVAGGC

Rsk1 = target: T4, Rsk1 (Homo sapiens, UniProt Q15418)
T4 construct: gene RPS6KA1

STK16 = STK16 (Homo sapiens, UniProt O75716)
STK16, sequence (O75716 whole entry): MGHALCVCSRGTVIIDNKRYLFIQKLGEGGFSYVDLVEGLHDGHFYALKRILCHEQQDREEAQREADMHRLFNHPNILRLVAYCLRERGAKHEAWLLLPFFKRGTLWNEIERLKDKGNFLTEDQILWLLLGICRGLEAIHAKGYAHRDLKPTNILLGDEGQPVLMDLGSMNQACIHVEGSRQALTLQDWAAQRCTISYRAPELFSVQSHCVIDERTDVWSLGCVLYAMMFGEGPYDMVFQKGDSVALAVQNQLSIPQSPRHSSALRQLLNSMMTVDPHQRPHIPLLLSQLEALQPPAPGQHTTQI

CLK1 = CLK1 (Homo sapiens, UniProt P49759)
LIMK1 = LIMK1 (Homo sapiens, UniProt P53667)
FGFR4 = FGFR4 (Homo sapiens, UniProt P22455)
TNK2 = TNK2 (Homo sapiens, UniProt Q07912)
TSSK1 = target: T5, TSSK1 (Homo sapiens, UniProt Q9BXA7)
T5 construct: gene TSSK1B
T5 sequence (Q9BXA7 whole entry): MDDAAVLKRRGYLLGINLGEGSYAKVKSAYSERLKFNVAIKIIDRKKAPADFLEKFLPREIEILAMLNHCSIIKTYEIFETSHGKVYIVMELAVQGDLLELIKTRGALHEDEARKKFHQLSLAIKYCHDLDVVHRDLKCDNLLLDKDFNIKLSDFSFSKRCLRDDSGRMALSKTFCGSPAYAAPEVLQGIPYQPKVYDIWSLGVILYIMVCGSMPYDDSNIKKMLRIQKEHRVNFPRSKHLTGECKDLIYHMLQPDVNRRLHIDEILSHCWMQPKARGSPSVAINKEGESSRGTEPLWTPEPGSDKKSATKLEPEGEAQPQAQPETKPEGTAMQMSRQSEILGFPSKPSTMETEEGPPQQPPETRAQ

CLK4 = CLK4 (Homo sapiens, UniProt Q9HAZ1)
CLK4, sequence (Q9HAZ1 whole entry): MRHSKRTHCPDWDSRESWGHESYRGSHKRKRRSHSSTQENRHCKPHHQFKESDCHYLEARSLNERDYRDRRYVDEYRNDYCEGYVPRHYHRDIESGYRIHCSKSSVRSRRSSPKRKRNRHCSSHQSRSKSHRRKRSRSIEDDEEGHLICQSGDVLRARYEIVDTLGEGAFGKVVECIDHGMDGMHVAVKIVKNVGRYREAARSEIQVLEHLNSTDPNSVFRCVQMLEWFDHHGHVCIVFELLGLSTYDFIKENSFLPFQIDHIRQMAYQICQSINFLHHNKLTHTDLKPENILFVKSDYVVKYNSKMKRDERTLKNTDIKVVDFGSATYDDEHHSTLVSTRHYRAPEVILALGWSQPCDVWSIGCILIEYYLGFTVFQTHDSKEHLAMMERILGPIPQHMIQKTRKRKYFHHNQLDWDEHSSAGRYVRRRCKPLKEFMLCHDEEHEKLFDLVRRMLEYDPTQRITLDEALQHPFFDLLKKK

MKK6 = target: T6, MKK6 (Homo sapiens, UniProt P52564)
T6 construct: gene MAP2K6
T6 sequence (P52564 whole entry): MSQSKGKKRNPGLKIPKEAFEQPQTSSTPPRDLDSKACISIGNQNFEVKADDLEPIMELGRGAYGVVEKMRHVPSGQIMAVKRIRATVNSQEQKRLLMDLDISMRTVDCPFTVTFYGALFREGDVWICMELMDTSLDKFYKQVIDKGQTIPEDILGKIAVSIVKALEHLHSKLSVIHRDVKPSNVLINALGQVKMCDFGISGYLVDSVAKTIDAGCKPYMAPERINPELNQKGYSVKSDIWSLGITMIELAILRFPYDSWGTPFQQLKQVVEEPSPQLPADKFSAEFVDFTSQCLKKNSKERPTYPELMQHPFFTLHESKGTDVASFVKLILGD

p38_beta = target: T7, p38_beta (Homo sapiens, UniProt Q15759)
T7 construct: gene MAPK11

EGFR(T790M,L858R) = EGFR(T790M,L858R) (Homo sapiens, UniProt P00533, L858R/T790M)
PI3K-G = target: T8, PI3K-G (Homo sapiens, UniProt P48736)
T8 construct: gene PIK3CG
T8 sequence (P48736 whole entry): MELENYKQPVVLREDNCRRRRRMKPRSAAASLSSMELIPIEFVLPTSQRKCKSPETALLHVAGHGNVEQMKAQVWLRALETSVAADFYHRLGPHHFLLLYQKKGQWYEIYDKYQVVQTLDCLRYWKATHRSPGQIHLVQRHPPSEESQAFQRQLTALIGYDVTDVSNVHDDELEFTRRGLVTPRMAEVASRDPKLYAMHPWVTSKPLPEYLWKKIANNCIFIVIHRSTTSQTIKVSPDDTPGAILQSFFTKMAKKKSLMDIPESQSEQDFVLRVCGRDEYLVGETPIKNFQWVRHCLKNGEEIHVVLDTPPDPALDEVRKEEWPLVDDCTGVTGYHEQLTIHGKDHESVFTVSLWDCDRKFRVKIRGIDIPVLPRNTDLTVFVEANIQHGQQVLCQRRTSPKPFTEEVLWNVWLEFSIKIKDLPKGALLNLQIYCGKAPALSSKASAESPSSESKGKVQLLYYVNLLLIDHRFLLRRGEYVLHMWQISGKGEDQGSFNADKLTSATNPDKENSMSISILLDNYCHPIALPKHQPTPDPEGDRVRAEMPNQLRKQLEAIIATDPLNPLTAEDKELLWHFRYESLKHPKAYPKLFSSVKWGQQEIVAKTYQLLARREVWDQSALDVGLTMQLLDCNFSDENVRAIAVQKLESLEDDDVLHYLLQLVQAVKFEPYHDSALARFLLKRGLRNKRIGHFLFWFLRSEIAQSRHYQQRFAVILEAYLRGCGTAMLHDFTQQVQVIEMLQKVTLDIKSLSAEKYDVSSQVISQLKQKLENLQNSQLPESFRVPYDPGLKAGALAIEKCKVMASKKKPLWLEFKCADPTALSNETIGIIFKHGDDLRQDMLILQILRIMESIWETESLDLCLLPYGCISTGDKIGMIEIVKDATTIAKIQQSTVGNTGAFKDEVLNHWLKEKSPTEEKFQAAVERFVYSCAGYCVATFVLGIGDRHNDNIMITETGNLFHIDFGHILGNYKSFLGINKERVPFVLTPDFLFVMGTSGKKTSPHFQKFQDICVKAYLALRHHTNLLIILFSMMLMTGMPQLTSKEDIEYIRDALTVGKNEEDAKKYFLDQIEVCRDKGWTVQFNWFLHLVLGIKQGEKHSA

MYLK3(caMLCK) = target: T9, MYLK3(caMLCK) (Homo sapiens, UniProt Q32MK0)
T9 construct: caMLCK

EphB1 = EphB1 (Homo sapiens, UniProt P54762)
EphB1, sequence (P54762 whole entry): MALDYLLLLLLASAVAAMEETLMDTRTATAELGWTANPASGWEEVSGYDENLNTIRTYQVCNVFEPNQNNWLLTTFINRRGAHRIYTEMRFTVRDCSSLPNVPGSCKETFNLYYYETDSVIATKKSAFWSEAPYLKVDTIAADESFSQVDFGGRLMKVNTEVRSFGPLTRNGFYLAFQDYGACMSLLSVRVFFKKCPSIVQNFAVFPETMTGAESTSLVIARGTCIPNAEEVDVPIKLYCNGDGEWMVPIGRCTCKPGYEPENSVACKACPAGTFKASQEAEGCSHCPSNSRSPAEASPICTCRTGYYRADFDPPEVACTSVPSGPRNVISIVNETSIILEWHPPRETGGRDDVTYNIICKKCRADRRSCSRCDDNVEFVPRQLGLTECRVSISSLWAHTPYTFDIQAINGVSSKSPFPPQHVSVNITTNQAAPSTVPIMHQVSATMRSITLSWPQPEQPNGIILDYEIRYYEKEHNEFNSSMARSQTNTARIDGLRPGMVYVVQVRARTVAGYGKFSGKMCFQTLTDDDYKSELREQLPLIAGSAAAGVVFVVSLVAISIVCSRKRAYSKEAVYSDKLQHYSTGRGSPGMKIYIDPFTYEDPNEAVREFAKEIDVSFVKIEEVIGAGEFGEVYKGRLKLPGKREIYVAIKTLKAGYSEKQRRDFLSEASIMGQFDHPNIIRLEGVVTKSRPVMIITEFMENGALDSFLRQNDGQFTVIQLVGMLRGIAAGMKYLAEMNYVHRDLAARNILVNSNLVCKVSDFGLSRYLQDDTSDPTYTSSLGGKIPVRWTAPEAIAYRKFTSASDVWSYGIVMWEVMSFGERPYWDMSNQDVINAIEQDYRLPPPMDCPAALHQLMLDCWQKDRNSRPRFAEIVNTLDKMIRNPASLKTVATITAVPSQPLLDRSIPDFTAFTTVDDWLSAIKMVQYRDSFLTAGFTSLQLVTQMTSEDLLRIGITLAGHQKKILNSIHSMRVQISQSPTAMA

GSK3_alpha = target: T10, GSK3_alpha (Homo sapiens, UniProt P49840)
T10 construct: gene GSK3A

SGK1 = SGK1 (Homo sapiens, UniProt O00141)
MEKK2 = target: T11, MEKK2 (Homo sapiens, UniProt Q9Y2U5)
T11 construct: gene MAP3K2

PKC_alpha = target: T12, PKC_alpha (Homo sapiens, UniProt P17252)
T12 construct: gene PRKCA

SMILES	inhibition at 1 µM (CLK3)	inhibition at 1 µM (PI3K-A)	inhibition at 1 µM (PDK1(direct))	inhibition at 1 µM (SGK3)	inhibition at 1 µM (TTK)	inhibition at 1 µM (PRK1)	inhibition at 1 µM (Rsk1)	inhibition at 1 µM (STK16)	inhibition at 1 µM (CLK1)	inhibition at 1 µM (LIMK1)	inhibition at 1 µM (FGFR4)	inhibition at 1 µM (TNK2)	inhibition at 1 µM (TSSK1)	inhibition at 1 µM (CLK4)	inhibition at 1 µM (MKK6)	inhibition at 1 µM (p38_beta)	inhibition at 1 µM (EGFR(T790M,L858R))	inhibition at 1 µM (PI3K-G)	inhibition at 1 µM (MYLK3(caMLCK))	inhibition at 1 µM (EphB1)	further results
CCOC(=O)Nc1cccc2c(Oc3ncccc3-c3ccnc(N[C@H]4CCCNC4)n3)c(C)ccc12 [G-1749]	7%	10%	5%	-5.5%	16%	0%	3%	-5.5%	6%	4.5%	7.5%	1%	8.5%	10.5%	-3.5%	100%	2.5%	16%	10.5%	-17%	inhibition at 1 µM (GSK3_alpha): 2.5%; inhibition at 1 µM (SGK1): 5.5%; inhibition at 1 µM (MEKK2): -0.5%; inhibition at 1 µM (PKC_alpha): 1.5%
CC#CC(=O)Nc1cccc2c(Oc3ncccc3-c3ccnc(N[C@H]4CCCNC4)n3)c(C)ccc12 [G-7658]	11.5%	-18.5%	3.5%	-2%	11.5%	-1.5%	1.5%	-9%	5.5%	15%	9%	2%	7.5%	6%	-2%	63.5%	4%	-7%	4.5%	-11.5%	inhibition at 1 µM (GSK3_alpha): 10.5%; inhibition at 1 µM (SGK1): 3.5%; inhibition at 1 µM (MEKK2): 1%; inhibition at 1 µM (PKC_alpha): 4%
